Experimental data taken from patent publication US20220409617A1, “Drug Formulations and Methods of Treatment for Metabolic Disorders” (The Regents of the University of California, priority 2019, published 2022).

How the values were obtained:
[1] = test system: diet-induced obesity; test: Weight loss intervention study in HFD-fed mice; assay type: in vivo
Protocol: Given its ability to correct HFD-induced mitochondrial fragmentation in vivo, sphingolipid-like compound 893 was evaluated as an interventional therapy for diet-induced obesity. Six-week old male, C57BL/6J mice were fed the HFD for 45 days; an age-matched cohort of control mice was maintained on the SD throughout the study. After 45 days, the average body weight of HFD-fed mice was approximately 130% that of chow-fed mice (FIGS. 15 to 17). Using quantitative nuclear magnetic resonance imaging, fat mass represented 21% of the body weight of mice that had consumed the HFD for 45 days and 12% of body weight in controls fed the standard diet; changes in lean body mass were of lesser magnitude (FIG. 17). At this point, HFD-fed mice were randomly assigned to receive vehicle (water), 60 mg/kg, or 120 mg/kg sphingolipid-like compound 893 by gavage; SD mice were treated with vehicle. Based on the increased activity of mice during the dark cycle (ZT12-ZT24) and the plasma pharmacokinetics of orally administered sphingolipid-like compound 893 (see FIG. 12), mice were treated at ZT8.5 on Mondays, Wednesdays, and Fridays. […] In the group receiving 120 mg/kg sphingolipid-like compound 893, the rate of weight loss slowed after 10 days. […] Despite continued treatment with the high dose of sphingolipid-like compound 893, weight loss plateaued once body weight matched that of SD controls (FIGS. 16 and 18). […] As in a prior report where mice were dosed 5-7 days a week for 11 weeks (S. M. Kim, et al., 2016, cited supra), sphingolipid-like compound 893 was well-tolerated, and the behavior of sphingolipid-like compound 893-treated mice was overtly normal throughout the study.
All animal experiments were performed in accordance with the Institutional Animal Care and Use Committee of University of California, Irvine. Male mice were used in all experiments. C57BL/6J mice (stock no 000664) and ob/ob mice (stock no 000632) were purchased from the Jackson Laboratory and were acclimated for 7 days prior to beginning experiments. Mice were housed under a 12:12 h light-dark cycle at 20-22° C. in groups of 4-5. Cages contained ⅛″ corncob bedding (7092A, Envigo, Huntingdon, UK) enriched with ˜6 g of cotton fiber nestlets (Ancare Corp., Bellmore, N.Y.). Access to food and water was ad libitum unless otherwise specified. For HFD studies, 8 week old C57BL/6J males were randomly assigned to either a 45% kcal from fat diet (HFD; D12451, Research Diets Inc., New Brunswick, N.J.) or 10% kcal from fat diet designed to match D12451 for other components (SD; D12450B, Research Diets Inc). Mice were maintained on these diets for up to 22 weeks as indicated. Ob/ob mice were fed the vivarium stock diet which contained 16% kcal from fat (2020×, Envigo). Polypropylene feeding tubes (20 g×38 mm; Instech Laboratories Inc., Plymouth, Pa.) were utilized for gavage and dipped into a 1 g/ml sucrose solution immediately prior to treatment to induce salivation.
HFD-fed mice were randomly assigned to experimental groups receiving either vehicle (water) or sphingolipid-like compound 893 at 60 mg/kg or 120 mg/kg by oral gavage on Mondays, Wednesdays, and Fridays. Mice were maintained on the HFD throughout the study. The SD group was treated with vehicle on the same schedule. Group size was initially n=10; one animal from the 60 mg/kg group that was euthanized due to gavage error was excluded from the analysis making this group n=9. All treatments and measurements were performed between ZT8 and ZT10 unless otherwise noted. Body weight and food consumption were monitored Monday-Friday. Body composition was determined weekly in live animals using an EchoMRI™ Body Composition Analyzer (EchoMRI™ Corp., Singapore). Mice were euthanized and tissues collected 4 h after treatment. Where indicated, mice were fasted for 6 h.

[2] = molecular target: ARF6 (Homo sapiens, UniProt P62330); details: cited from earlier work
Chain of ARF6 (P62330 whole entry, species assumed): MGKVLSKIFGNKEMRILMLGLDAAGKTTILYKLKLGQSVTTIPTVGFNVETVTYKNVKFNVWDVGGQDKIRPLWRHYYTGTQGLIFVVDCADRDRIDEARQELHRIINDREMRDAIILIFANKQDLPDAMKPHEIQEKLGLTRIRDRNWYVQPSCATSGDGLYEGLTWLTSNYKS

[3] = test system: ob/ob mice; test: Leptin-deficient ob/ob mice: food intake, body weight, OGTT; assay type: in vivo, mouse
Protocol: To more rigorously assess the role of leptin in the anti-obesogenic effects of sphingolipid-like compound 893, the response of leptin-deficient ob/ob mice to sphingolipid-like compound 893 was measured. As expected, ob/ob mice were hyperphagic and became obese on the standard chow diet provided by University Lab Animal Resources (16% kcal from fat). Ob/ob animals were used in experiments once they attained an equivalent body weight to C57BL/6J mice fed the HFD for 24 weeks (FIG. 36).
Mice were fasted for 6 h prior to blood glucose testing at ZT10. When sphingolipid-like compound 893 treatment was combined with an OGTT, mice were treated at ZT6. Once baseline fasting blood glucose was determined using a handheld blood glucose meter (Prodigy Diabetes Care, Charlotte, N.C.) and a drop of blood collected from a tail vein nick, mice were gavaged with an oral glucose solution (20% w/v in water, 2 g/kg bodyweight) and blood glucose measured in a drop of tail vein blood at 0, 15, 30, 60 and 120 min. The area under the curve was determined using Graphpad Prism software.
Mice were singly housed and allowed to acclimate for 72 h before food intake was monitored. Food consumption was determined by monitoring the weight of food in the hopper. Initial food and body weight measurements were taken at ZT9 and final measurements were taken 16 h later to capture the active period where most consumption occurred. Home cage feeding studies were performed with C57BL/6J mice maintained on a HFD for 24 weeks (33 weeks of age), or ob/ob mice at 8 weeks of age. Mice received vehicle or 120 mg/kg sphingolipid-like compound 893 by gavage at ZT8.5. For experiments involving leptin, 18 week old, SD fed (16% kcal from fat, 2020×, Envigo) C57BL/6J mice received vehicle or 120 mg/kg sphingolipid-like compound 893 by gavage at ZT8.5. At ZT11.5, vehicle (20 mM Tris-Cl, pH 8.0) or 2 mg/kg recombinant mouse leptin (498-OB, R&D Systems, Minneapolis, Minn.) was delivered by intraperitoneal injection. The same 8 mice were used for all treatments following a 48 h washout period, and treatments were administered in the following order: vehicle, sphingolipid-like compound 893, leptin, and leptin+sphingolipid-like compound 893. All data collected from one mouse was excluded due to inadvertent pharyngeal administration during gavage reducing the n from 8 to 7 (FIG. 5a-d). […] One ob/ob mouse died during Echo MRI for unknown reasons after 6 d of treatment with sphingolipid-like compound 893; data from this mouse was analyzed prior to death.

## CCCCCCCCc1ccc([C@H]2CCN[C@@H]2CO)cc1.Cl [compound 893]
[1]; HFD-fed mice, 60 mg/kg
  Fat mass gain: gained fat mass at a similar rate to mice fed a standard diet
[1]; HFD-fed mice, 60 mg/kg by gavage Mon/Wed/Fri
  Body weight versus chow-fed controls: no longer gained weight, but did not match chow-fed controls
[1]; HFD-fed mice, 60 mg/kg or 120 mg/kg by gavage Mon/Wed/Fri
  Body weight change during treatment: dose-dependent weight loss
[1]; HFD-fed mice, 120 mg/kg by gavage Mon/Wed/Fri, after 2 weeks (6 doses)
  Body weight versus chow-fed controls: no longer statistically different from that of mice continuously fed a standard chow diet
[1]; HFD-fed mice, 60 or 120 mg/kg Mon/Wed/Fri
  Tolerability: well-tolerated
[1]; HFD-fed mice, 60 or 120 mg/kg, EchoMRI
  Body composition underlying weight loss (fat mass, lean mass): a decline in fat mass with little change in lean mass
[1]; HFD-fed wild type mice, six doses of 120 mg/kg over 2 weeks
  Reduction of body weight: 10%
[2]
  Effect on ARF6: inactivates
[3]; 120 mg/kg Mon/Wed/Fri for 2 weeks
  Cumulative food intake, repeated dosing: only a modest decrease in cumulative food intake
[3]; 120 mg/kg Mon/Wed/Fri, OGTT at 14 d
  Fasting hyperglycemia and glucose tolerance: failed to correct fasting hyperglycemia or restore glucose tolerance
[3]; single oral dose 120 mg/kg
  Food intake after a single dose: decreased food intake
[3]; six doses of 120 mg/kg over 2 weeks
  Body weight gain: 5%
